Among the data in ChEMBL document CHEMBL1201862, “PubChem BioAssay data set” (2004) are EC50, IC50 and AC50 values, retold here.

Structures are written as SMILES. Active and inactive are the calls of the source.

Experiment [1] is described as follows: NIH-3T3 fibroblast cytotoxicity, dose response, cytotoxicity control, cell-based, fluorescence, Alamar Blue, secondary assay (AID 2327).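 Also: NIH-3T3 mouse fibroblasts cultured with fluconazole at 8 µg/mL.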 In kind it is functional. (In general: Resazurin is reduced to fluorescent resorufin, in cell work by metabolically active cells.)
Experiment [2] is described as follows: C. albicans growth with fluconazole, confirmation, fluorescence, retest (AID 2467). The format is functional, cell-based.
The target in experiment [3] is Serine/threonine-protein phosphatase (Candida dubliniensis (strain CD36 / CBS 7987 / NCPF 3949 / NRRLY-17841) (Yeast), UniProt B9W6M3). Briefly: calcineurin pathway inhibitors in yeast reporter, dose response, S. cerevisiae, CDRE-lacZ, luminescence, secondary (AID 2388).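 Also: yeast reporter cells carrying a calcineurin-responsive lacZ construct stimulated with calcium chloride; luminescent beta-galactosidase reporter signal in whole cells rather than isolated phosphatase activity; potency for inhibition where a drop in reporter signal means calcineurin blockade.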 The format is functional, cell-based.
Serine/threonine-protein phosphatase, sequence (B9W6M3 whole entry): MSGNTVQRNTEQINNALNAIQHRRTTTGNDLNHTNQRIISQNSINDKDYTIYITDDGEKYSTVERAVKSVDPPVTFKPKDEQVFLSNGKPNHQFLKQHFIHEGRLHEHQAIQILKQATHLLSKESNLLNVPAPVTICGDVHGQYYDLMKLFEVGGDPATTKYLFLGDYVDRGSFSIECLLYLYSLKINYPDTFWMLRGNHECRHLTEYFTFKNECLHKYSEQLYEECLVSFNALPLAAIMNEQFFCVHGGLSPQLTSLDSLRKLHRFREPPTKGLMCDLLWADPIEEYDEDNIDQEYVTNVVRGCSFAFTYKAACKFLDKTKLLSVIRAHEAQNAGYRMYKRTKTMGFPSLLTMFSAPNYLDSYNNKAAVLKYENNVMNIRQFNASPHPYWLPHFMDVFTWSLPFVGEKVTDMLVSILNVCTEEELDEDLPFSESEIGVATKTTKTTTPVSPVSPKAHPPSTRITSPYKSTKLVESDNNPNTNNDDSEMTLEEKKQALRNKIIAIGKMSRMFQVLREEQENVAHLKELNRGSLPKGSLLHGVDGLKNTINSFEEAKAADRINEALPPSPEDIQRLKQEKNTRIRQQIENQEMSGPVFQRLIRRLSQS
Experiment [4] addresses ATP-dependent molecular chaperone HSP82 (Candida albicans (strain WO-1) (Yeast), UniProt C4YTQ8). Briefly: loss of DOC-induced GRE-beta-galactosidase reporter signal, dose response, Hsp90 inhibitor project, S. cerevisiae, luminescence (AID 2400).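 Also: beta-galactosidase luminescence from glucocorticoid response element reporter as proxy for Hsp90 function; inhibitor potency where signal loss means Hsp90 inhibition.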 The format is functional, cell-based.
A further experiment deals with Jurkat. Briefly: antigen receptor-induced NF-kB inhibitors, dose response, Jurkat, luciferase reporter, luminescence, B- and T-cell (AID 489004).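 Also: NF-kB luciferase reporter Jurkat cells stimulated with PMA plus ionomycin.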 The format is functional, cell-based. The settings on record: Homo sapiens. In general terms: A reporter such as luciferase makes a cellular process visible.
Experiment [5] is described as follows: cytotoxicity in HEK-293T NF-kB-Luc cells, dose response, cytotoxicity control for B/T-cell NF-kB inhibitor project, cell-based, uHTS hits (AID 489019).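 Also: IC50 reflects cytotoxicity as loss of cell viability.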 The format is functional.
For experiment [6], the target named is T1, Microphthalmia-associated transcription factor (Homo sapiens, UniProt O75030).
T1 sequence (O75030 whole entry): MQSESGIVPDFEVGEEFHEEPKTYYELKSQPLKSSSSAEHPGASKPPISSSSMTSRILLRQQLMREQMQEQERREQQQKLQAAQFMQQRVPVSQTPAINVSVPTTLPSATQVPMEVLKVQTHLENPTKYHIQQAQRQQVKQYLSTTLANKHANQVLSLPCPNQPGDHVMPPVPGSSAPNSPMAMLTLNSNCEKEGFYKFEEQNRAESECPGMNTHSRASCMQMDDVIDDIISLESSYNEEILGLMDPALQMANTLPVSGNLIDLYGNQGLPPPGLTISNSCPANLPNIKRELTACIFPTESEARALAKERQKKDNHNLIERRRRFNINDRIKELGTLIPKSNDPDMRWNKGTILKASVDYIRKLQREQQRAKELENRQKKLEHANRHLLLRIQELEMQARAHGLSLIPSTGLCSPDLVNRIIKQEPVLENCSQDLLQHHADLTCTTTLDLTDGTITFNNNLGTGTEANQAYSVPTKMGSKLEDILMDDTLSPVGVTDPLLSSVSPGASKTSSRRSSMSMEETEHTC
Kind of experiment: TRPM1 promoter luciferase signal decrease, dose response, MITF inhibitor project, cell-based, SK-MEL-5, cherry-picked, set 3 (AID 493073).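 Also: SK-MEL-5 melanoma cells with luciferase driven by the MITF target TRPM1 promoter.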 In kind it is functional.

The subject of the next experiment is A-375. Kind of experiment: MITF: Counter assay: A375 proliferation Measured in Cell-Based System Using Plate Reader - 2084-03_Inhibitor_Dose_DryPowder_Activity. [Related pubchem assays (depositor defined):AID488944]. In kind it is functional. The settings on record: Homo sapiens.
The test system of the next experiment is INS1. Kind of experiment: beta cell apoptosis inhibitors, cytokine rescue, dose response, luminescence, retest (AID 449756).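 Also: cell death triggered by IL-1 beta plus TNF-alpha plus IFN-gamma mixture; protective hits raise ATP signal compared with cytokine alone wells.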 The settings on record: Rattus norvegicus. In kind it is functional, cell-based.
For experiment [7], the target named is Induced myeloid leukemia cell differentiation protein Mcl-1 (Homo sapiens, UniProt Q07820). In kind it is functional.
Induced myeloid leukemia cell differentiation protein Mcl-1, sequence (Q07820 whole entry): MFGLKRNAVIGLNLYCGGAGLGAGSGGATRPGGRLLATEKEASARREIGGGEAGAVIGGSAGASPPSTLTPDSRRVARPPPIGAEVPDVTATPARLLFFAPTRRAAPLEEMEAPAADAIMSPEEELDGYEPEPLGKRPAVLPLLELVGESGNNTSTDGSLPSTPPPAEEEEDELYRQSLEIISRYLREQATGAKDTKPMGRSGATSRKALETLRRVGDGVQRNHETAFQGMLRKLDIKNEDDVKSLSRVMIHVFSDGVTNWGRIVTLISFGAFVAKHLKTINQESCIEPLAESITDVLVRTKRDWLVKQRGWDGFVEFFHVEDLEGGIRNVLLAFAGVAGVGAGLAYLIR
In experiment [8] the target is FAD-linked sulfhydryl oxidase ALR (Homo sapiens, UniProt P55789). Briefly: inhibitors of human ALR sulfhydryl oxidase, dose response, biochemical, H2O2 detection, luminescence, cherry-pick (AID 493248).
FAD-linked sulfhydryl oxidase ALR, sequence (P55789 whole entry): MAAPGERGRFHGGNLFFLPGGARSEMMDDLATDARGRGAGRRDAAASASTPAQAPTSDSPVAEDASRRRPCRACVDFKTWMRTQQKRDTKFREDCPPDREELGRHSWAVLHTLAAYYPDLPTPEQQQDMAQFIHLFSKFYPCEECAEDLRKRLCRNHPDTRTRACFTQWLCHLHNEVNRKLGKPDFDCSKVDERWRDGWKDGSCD
Experiment [9] has as its target Dual specificity tyrosine-phosphorylation-regulated kinase 1A (Rattus norvegicus, UniProt Q63470). In kind it is biochemical, Homo sapiens.
The target of experiment [10] is Histone-lysine N-methyltransferase NSD2 (Homo sapiens, UniProt O96028). The format is biochemical.
Histone-lysine N-methyltransferase NSD2, sequence (O96028 whole entry): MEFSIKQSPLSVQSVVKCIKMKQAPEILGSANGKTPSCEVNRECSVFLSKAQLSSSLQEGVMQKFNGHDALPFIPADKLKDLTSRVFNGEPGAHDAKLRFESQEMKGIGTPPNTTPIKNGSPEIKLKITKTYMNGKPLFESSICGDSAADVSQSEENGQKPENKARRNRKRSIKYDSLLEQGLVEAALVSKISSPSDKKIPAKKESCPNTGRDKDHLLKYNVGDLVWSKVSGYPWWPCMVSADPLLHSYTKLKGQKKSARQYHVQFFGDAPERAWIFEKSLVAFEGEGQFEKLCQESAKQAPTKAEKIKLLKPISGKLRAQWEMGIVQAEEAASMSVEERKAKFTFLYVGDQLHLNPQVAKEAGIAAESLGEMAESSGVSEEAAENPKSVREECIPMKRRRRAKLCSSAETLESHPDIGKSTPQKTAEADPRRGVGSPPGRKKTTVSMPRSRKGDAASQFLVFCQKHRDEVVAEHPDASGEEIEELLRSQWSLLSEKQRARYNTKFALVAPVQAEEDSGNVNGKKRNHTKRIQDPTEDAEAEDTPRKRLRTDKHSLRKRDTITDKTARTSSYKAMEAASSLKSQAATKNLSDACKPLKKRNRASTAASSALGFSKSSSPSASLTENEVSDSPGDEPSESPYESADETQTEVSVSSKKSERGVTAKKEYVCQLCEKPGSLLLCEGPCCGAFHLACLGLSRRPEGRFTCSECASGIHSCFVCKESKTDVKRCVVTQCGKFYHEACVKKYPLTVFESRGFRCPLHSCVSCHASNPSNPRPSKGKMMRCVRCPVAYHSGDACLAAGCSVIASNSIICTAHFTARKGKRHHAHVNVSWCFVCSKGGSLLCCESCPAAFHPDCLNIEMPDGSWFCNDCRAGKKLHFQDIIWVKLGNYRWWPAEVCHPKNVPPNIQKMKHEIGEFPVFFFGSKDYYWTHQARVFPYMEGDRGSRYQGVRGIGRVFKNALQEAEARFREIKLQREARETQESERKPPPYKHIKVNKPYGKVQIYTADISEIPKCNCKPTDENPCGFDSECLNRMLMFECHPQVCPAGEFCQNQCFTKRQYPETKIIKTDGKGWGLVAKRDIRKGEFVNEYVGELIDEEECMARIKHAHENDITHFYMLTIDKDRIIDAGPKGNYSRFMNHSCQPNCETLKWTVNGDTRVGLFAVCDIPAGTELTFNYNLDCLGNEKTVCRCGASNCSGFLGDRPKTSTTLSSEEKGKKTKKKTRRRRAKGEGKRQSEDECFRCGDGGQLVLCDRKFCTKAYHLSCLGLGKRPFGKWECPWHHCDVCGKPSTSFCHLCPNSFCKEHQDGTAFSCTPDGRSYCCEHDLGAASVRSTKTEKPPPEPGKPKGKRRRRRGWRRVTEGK
For the next experiment, the system named is HeLa. Briefly: HeLa cell cytotoxicity, dose response, cytotoxicity control for MITF activator project, CellTiter-Glo luminescence, cherry-pick samples (AID 540259). The format is functional, cell-based. To be noted: Homo sapiens. Background: In ATP-based viability assays light output follows the ATP content of the culture.
Experiment [11] addresses T2, Corticotropin-releasing factor receptor 2/Corticotropin-releasing factor-binding protein (Homo sapiens, UniProt P24387+Q13324).
T2 sequence (Q13324 whole entry): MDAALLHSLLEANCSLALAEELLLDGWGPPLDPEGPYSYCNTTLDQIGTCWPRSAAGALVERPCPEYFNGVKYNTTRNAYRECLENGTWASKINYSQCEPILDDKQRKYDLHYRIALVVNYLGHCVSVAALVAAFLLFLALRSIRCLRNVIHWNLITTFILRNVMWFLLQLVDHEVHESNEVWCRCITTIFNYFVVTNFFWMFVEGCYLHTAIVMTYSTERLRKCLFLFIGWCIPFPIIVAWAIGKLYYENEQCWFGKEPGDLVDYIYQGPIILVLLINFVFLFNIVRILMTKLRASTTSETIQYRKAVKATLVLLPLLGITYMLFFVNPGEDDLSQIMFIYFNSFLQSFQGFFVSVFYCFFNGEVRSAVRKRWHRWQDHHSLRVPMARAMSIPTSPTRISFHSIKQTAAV
T2 sequence (P24387 whole entry): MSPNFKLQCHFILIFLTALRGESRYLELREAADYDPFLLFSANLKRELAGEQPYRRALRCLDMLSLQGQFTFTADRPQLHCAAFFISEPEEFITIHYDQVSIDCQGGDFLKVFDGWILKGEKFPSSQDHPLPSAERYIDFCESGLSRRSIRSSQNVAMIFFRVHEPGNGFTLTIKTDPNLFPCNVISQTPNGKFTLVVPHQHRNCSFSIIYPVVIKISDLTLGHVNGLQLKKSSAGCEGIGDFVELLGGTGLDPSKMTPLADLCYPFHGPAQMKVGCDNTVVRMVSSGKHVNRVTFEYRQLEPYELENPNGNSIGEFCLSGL
Briefly: Dose Response confirmation of uHTS hits for small molecule antagonists of the CRF-binding protein and CRF-R2 receptor complex. The format is functional. The settings on record: read-out: IC50_Mean.

Experiment [12] deals with T2, Corticotropin-releasing factor receptor 2/Corticotropin-releasing factor-binding protein. Kind of experiment: activators of CRF receptor 2 with binding protein – uHTS hits, confirmation (AID 602473). In kind it is functional. The settings on record: read-out: EC50_Mean.

ATP-dependent molecular chaperone HSP82, sequence (C4YTQ8 whole entry): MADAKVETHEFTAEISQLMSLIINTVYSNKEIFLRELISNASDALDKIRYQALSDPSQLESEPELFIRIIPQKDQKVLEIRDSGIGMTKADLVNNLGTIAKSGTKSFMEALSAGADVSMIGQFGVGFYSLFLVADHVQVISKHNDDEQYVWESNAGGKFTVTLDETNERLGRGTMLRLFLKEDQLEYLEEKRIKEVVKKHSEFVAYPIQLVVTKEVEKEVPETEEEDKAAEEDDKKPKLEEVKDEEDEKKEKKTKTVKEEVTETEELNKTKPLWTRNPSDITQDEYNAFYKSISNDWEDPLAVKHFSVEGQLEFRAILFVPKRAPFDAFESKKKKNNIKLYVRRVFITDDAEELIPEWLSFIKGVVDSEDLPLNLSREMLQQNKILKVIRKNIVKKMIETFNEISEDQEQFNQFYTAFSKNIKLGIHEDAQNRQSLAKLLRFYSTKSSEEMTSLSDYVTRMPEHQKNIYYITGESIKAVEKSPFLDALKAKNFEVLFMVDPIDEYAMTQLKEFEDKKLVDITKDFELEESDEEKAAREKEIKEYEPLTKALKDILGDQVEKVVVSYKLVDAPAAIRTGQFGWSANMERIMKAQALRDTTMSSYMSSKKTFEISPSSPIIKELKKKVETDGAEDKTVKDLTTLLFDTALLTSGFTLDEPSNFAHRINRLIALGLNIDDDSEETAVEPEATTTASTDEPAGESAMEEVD

For the molecule `CCCCCCc1c(C)nc(-n2[nH]c(C)c(CCO)c2=O)[nH]c1=O`, the EC50 is > 160 µM (inactive) in [1], 0.635 µM (active) in [2], > 180 µM (inactive) in experiment [3] and > 160 µM (inactive) in experiment [4].
For the molecule `CCOc1ccc(-[n+]2c(-c3ccc(OC)cc3)cn3c2CCCCC3)cc1`, the EC50 in experiment [1] is > 150 µM (inactive); in experiment [2], 0.48 µM (active). The IC50 (in the experiment with Jurkat; in experiment [5]) was > 80 µM (inactive) each time. The figures for the AC50 (in experiment [6]; in the experiment on A-375; with INS1) were 2.13 µM (active), 48 µM (active) and 0.312 µM (active), respectively.
Consider `O=C1NC(=O)/C(=C\c2ccc(O)cc2O)S1`, for which the IC50 in experiment [7] is 2.2 µM (active). Also, the half-maximal activity concentration (AC50) (in general, the midpoint of the concentration-response curve, whichever way the signal moves) in experiment [8] is 1.78 µM (active); in experiment [9], 0.56 µM (active); in experiment [10] it was 2.07 µM (active).
In the case of `COc1ccc2c(c1OC)C(=O)N1c3ccccc3COC21` (stereo not drawn), the AC50 in the experiment on HeLa was > 350 µM (inactive). In addition, the IC50 in experiment [11] is > 47.1 µM (inactive). The EC50 in [12] is > 53 µM (inactive).
